Drawing on ChEMBL document CHEMBL5247589, “Natural occurrence, bioactivity, and biosynthesis of triene-ansamycins” (Eur J Med Chem, 2022), this text covers MIC and IC50 for 20 molecules.

≈ marks a conversion by molar mass, not a printed value.

One data set has as its system L5178Y. The data set can be described thus: Cytotoxicity against mouse L5178Y. Type of data set: toxicity, cell-based.
A further data set concerns SW1990. The data set can be described thus: Antitumor activity against human SW1990 cells assessed as cell growth inhibition incubated for 48 hrs by CCK-8 assay. Type of data set: functional, cell-based. The note with it: SW1990, 48 h. For orientation: Formazan colour is commonly taken as a measure of viable cells.
Data set [1] has as its system PANC-1. The data set can be described thus: Antitumor activity against human PANC-1 cells assessed as cell growth inhibition incubated for 48 hrs by CCK-8 assay. Type of data set: functional, cell-based. As to conditions: PANC-1, 48 h.
For data set [2], the system named is HeLa. The data set can be described thus: Antiproliferative activity against human HeLa cells incubated for 72 hrs by absorbance based assay. Type of data set: functional, cell-based.
Another data set relates to NCI-H1299. The data set can be described thus: Antiproliferative activity against human H1299 cells incubated for 72 hrs by absorbance based assay. Type of data set: functional, cell-based. As to conditions: NCI-H1299, 72 h.
Another data set deals with HepG2. The data set can be described thus: Antitumor activity against human HepG2 incubated for 48 hrs by MTT assay. The note with it: HepG2, 48 h. Type of data set: functional, cell-based.
For data set [3], the system named is MCF7. The data set can be described thus: Antitumor activity against human MCF-7 incubated for 48 hrs by MTT assay. Type of data set: functional, cell-based. As to conditions: MCF7, 48 h.
The subject of data set [4] is HeLa. The data set can be described thus: Antitumor activity against human HeLa cells assessed as cell growth inhibition incubated for 72 hrs by MTT assay. Type of data set: functional, cell-based.
Data set [5] concerns PANC-1. The data set can be described thus: Antitumor activity against human PANC-1. As to conditions: pooled result: one value given for 3 cell lines, strains, targets or settings. Type of data set: functional, cell-based.
Another data set has as its system COLO 201. The data set can be described thus: Antitumor activity against human COL0201 cells assessed as cell growth inhibition incubated for 3 days. Type of data set: functional, cell-based. The note with it: COLO 201, 72 h.
In data set [6] the test system is MCF7. The data set can be described thus: Antitumor activity against human MCF7 cells assessed as cell growth inhibition incubated for 3 days. Type of data set: functional, cell-based. As to conditions: MCF7, 72 h.
For data set [7], the system named is HeLa. The data set can be described thus: Antitumor activity against human HeLa cells assessed as cell growth inhibition incubated for 3 days. Type of data set: functional, cell-based. As to conditions: 72 h.
A further data set has as its system C-33-A. The data set can be described thus: Antitumor activity against human C33A cells assessed as cell growth inhibition incubated for 3 days. Type of data set: functional, cell-based. As to conditions: 72 h.
In a further data set the test system is Capan-2. The data set can be described thus: Antitumor activity against human Capan-2 cells incubated for 48 to 72 hrs by MTS Assay. Type of data set: functional, cell-based.
Data set [8] has as its system PANC-1. The data set can be described thus: Antitumor activity against human PANC-1 cells incubated for 48 to 72 hrs by MTS Assay. Type of data set: functional, cell-based.
The subject of a further data set is BXPC-3. The data set can be described thus: Antitumor activity against human BXPC-3 cells incubated for 48 to 72 hrs by MTS Assay. Type of data set: functional, cell-based.

`CO[C@H]1/C=C/C=C/C=C/C[C@H](O)[C@H](C)[C@@H](O)/C(C)=C\CCc2cc(O)cc(c2O)NC(=O)C1` registered an MIC in the data set with L5178Y of 7 µM (≈ 3.2 µg/mL).
The term IC50 denotes the concentration that gives 50% inhibition. With `CO[C@@H]1CC(=O)Nc2c(O)c3cc4c2[C@H](/C=C/C=C/C[C@H](OC(=O)[C@@H](C)NC(=O)C2=CCCCC2)[C@H](C)[C@@H](O)/C(C)=C\CC3)[C@H]1O4`, the IC50 with SW1990 and in the data set with PANC-1 [1] was greater than 10000 nM throughout.
As for `CO[C@@H]1CC(=O)N2c3cc(O)cc4c3O[C@@H](/C=C/C=C/C[C@H](OC(=O)[C@@H](C)NC(=O)C3CCCCC3)[C@H](C)[C@@H](O)/C(C)=C\CC4)[C@H]12`, the IC50 in the data set with SW1990 and in the data set on PANC-1 [1] was 8290 nM in each case.
As for `C[C@@H]1[C@@H](O)[C@H](C)[C@@H](O)CCc2cc(O)cc(c2)NC(=O)C[C@@H](O)/C=C/C=C/C=C/C[C@@H]1O`, the IC50 in the data set on HeLa [2] is 10000 nM; in the data set on NCI-H1299 it was greater than 10000 nM.
In the case of `C/C1=C/CCc2c(O)c(cc3c2SCC(=O)N3)NC(=O)C[C@@H](O)/C=C/C=C/C=C/C[C@H](O)[C@H](C)[C@H]1O`, the IC50 in the data set with HeLa [2] was 10000 nM; in the data set with NCI-H1299, greater than 10000 nM.
Consider `CO[C@H]1/C=C/C=C/C=C/C[C@H](OC(=O)[C@@H](C)NC(=O)C2CC2)[C@H](C)[C@@H](O)/C(C)=C\CCc2cc(O)cc(c2)NC(=O)C1`, for which the IC50 in the data set on HepG2 and in the data set on MCF7 [3] was greater than 10000 nM each time.
`CO[C@H]1/C=C/C=C/C=C/C[C@H](OC(=O)[C@@H](C)NC(=O)C2CCCCC2)[C@H](C)C(=O)/C(C)=C\CCc2cc(O)cc(c2O)NC(=O)C1`: the IC50 in the data set with HeLa [4] was greater than 10000 nM.
For `CO[C@H]1/C=C/C=C/C=C/C[C@H](OC(=O)[C@@H](C)NC(=O)C2CCCC2)[C@H](C)[C@@H](O)/C(C)=C\CCc2cc(O)cc(c2)NC(=O)C1`, the IC50 in the data set with HepG2 and with MCF7 [3] was no less than 6810 nM throughout.
`CC[C@H](C)C(=O)N[C@H](C)C(=O)O[C@H]1C/C=C/C=C/C=C/[C@H](OC)CC(=O)Nc2cc(O)cc(c2)CC/C=C(/C)[C@H](O)[C@H]1C`: the IC50 in the data set with PANC-1 [5] is 340 nM.
With `CO[C@H]1/C=C/C=C/C=C/C[C@H](OC(=O)[C@@H](C)NC(=O)CC(C)C)[C@H](C)[C@@H](O)/C(C)=C\CCc2cc(O)cc(c2)NC(=O)C1`, half-maximal inhibition in the data set on PANC-1 [5] (IC50) required 170 nM.
Turning to `CO[C@H]1/C=C/C=C/C=C/C[C@H](OC(=O)[C@@H](C)NC(=O)C2CCCCC2)[C@H](C)[C@@H](O)/C(C)=C\CCc2c(O)c(cc3c2SCC(=O)N3)NC(=O)C1`, the IC50 with COLO 201, in the data set on MCF7 [6], in the data set on HeLa [7] and in the data set with C-33-A was 18 nM in each case.
In the data set on PANC-1 [5], `CO[C@H]1/C=C/C=C/C=C/C[C@H](OC(=O)[C@@H](C)NC(=O)C2=CCCCC2)[C@H](C)[C@@H](O)/C(C)=C\CCc2cc(O)cc(c2)NC(=O)C1` had an IC50 of 35 nM.
In turn, `CO[C@H]1/C=C/C=C/C=C/C[C@H](O)[C@H](C)[C@@H](O)/C(C)=C\CCC2=CC(=O)C=C(NC(=O)C1)C2=O` came in with an MIC against L5178Y greater than 10 µM.
For the molecule `C/C=C(\C)C(=O)N[C@H](C)C(=O)O[C@H]1C/C=C/C=C/C=C/[C@H](OC)CC(=O)Nc2cc(O)cc(c2)CC/C=C(/C)[C@H](O)[C@H]1C`, the IC50 in the data set on Capan-2, in the data set with PANC-1 [8] and with BXPC-3 was no less than 10000 nM each time.
With `CO[C@@H]1CC(=O)N2c3cc(O)cc4c3O[C@@H](/C=C/C=C/C[C@H](O)[C@H](C)[C@@H](O)/C(C)=C\CC4)[C@@H]12`, the half-maximal inhibitory concentration (IC50) is 10000 nM in the data set on HeLa [2] and greater than 10000 nM in the data set with NCI-H1299.
As to `CO[C@@H]1CC(=O)Nc2c(O)c3cc4c2[C@H](/C=C/C=C/C[C@H](OC(=O)[C@@H](C)NC(=O)CCC(C)C)[C@H](C)[C@@H](O)/C(C)=C\CC3)[C@H]1O4`, the IC50 with SW1990 and in the data set with PANC-1 [1] was greater than 10000 nM in each case.
The molecule `COc1cc2c(O)c(c1)NC(=O)C[C@@H](OC)/C=C/C=C/C=C/C[C@H](OC(=O)[C@@H](C)NC(=O)C1CCCCC1)[C@H](C)[C@@H](O)/C(C)=C\CC2` yielded an MIC against L5178Y of 0.17 µM (≈ 0.111 µg/mL).
Turning to `CO[C@@H]1CC(=O)Nc2c(O)c3cc4c2[C@H](/C=C/C=C/C[C@H](O)[C@H](C)[C@@H](OC(=O)[C@@H](C)NC(=O)C2CCCCC2)/C(C)=C\CC3)[C@H]1O4`, the IC50 in the data set on SW1990 and in the data set with PANC-1 [1] was 7790 nM throughout.
`CO[C@H]1/C=C/C=C/C=C/C[C@H](OC(=O)[C@@H](C)NC(=O)C2=CCCCC2)[C@H](C)[C@@H](O)/C(C)=C\CCc2cc3c(c(c2O)NC(=O)C1)SCC(=O)N3`: the IC50 with COLO 201, with MCF7 [6], with HeLa [7] and in the data set on C-33-A was 3.1 nM throughout.
Turning to `CO[C@H]1/C=C/C=C/C=C/C[C@H](OC(=O)[C@@H](C)NC(=O)C2CCCCC2)[C@H](C)[C@@H](O)/C(C)=C\CCc2cc3c(c(c2O)NC(=O)C1)SCC(=O)N3`, the IC50 in the data set with COLO 201, with MCF7 [6], in the data set on HeLa [7] and in the data set with C-33-A was 0.85 nM each time.
